As a reminder, the CC50 is the concentration giving 50% cytotoxicity.

In this test the test system is cytotoxicity counter-screen, luminescence read-out. Put plainly: cell viability loss, luminescent readout – luminescence, cytotoxicity control for HIV fusion inhibitor project, SAR follow-up (AID 435031).

Activity calls are given as the source filed them. No rule for the calls is given here. Some results are limits rather than exact numbers.

On to `COC(=O)c1sc(-c2ccc(C(C)(C)C)cc2)cc1NC(=O)c1ccccc1C(=O)O`, for which the CC50 is 17 µM.

With `COc1ccccc1NS(=O)(=O)c1cccc(-n2c(O)c(C=Nc3ccccc3C(=O)O)c3ccccc3c2=O)c1`, the CC50 was > 100 µM (inactive).

`CC(C)S(=O)(=O)C1=NSC2=NC(=O)/C(=C\c3ccc(-c4ccccc4)o3)C(=N)N21`: the CC50 was > 100 µM (inactive).

Regarding `O=c1c(=Cc2cc([N+](=O)[O-])cc([N+](=O)[O-])c2O)sc2nc3ccccc3n12`, the CC50 is > 100 µM (inactive).

For `O=C(O)c1ccccc1N=Nc1c(O)[nH]c2ccc([N+](=O)[O-])cc12`, the CC50 is > 100 µM (inactive).

Regarding `O=C(N/N=C/c1c(O)n(C2CCCCC2)c(=S)[nH]c1=O)c1ccccc1O`, the CC50 is > 100 µM (inactive).

Consider `COc1ccc(OC)c(N2C(=O)/C(=C/c3ccco3)C(=O)NC2=S)c1`, for which the CC50 is > 100 µM (inactive).

As to `CC(C)(C)c1cc(-c2csc(Nc3ccccc3)[n+]2Cc2ccc(C(=O)O)cc2)cc(C(C)(C)C)c1O`, the cytotoxic concentration (CC50) is 13.7 µM.

As for `COc1cc(C=NNc2ccc(Cl)c(C(=O)O)c2)ccc1OC(=O)c1ccc(F)cc1`, the CC50 was > 100 µM (inactive).

For the compound `O=C(O)c1ccccc1C(=O)N(Cc1cccc(Oc2ccc(Cl)cc2)c1)[C@H]1CCCc2ccccc21`, the CC50 was 19 µM.

Consider `O=[N+]([O-])c1cc([N+](=O)[O-])c2oc(-c3ccccc3)c(Br)c2c1O`, for which the CC50 was > 100 µM (inactive).

Consider `CSc1nnc(-c2ccccc2N=Cc2c(C)[nH]n(-c3ccc4ccccc4c3)c2=O)c(=O)[nH]1`, for which the CC50 was > 100 µM (inactive).

Turning to `CS(=O)(=O)C1=NSC2=NC(=O)/C(=C\c3cccn3-c3ccc(Cl)cc3)C(=N)N21`, the CC50 was > 100 µM (inactive).

Turning to `COc1cc(/C=C2\SC(=O)N(c3ccccc3Cl)C2=O)cc([N+](=O)[O-])c1O`, the CC50 is > 100 µM (inactive).

As for `N#C/C(=C\c1ccc(OCc2ccc(Cl)cc2)cc1)C(=O)Nc1cccc(C(=O)O)c1`, the CC50 was > 100 µM (inactive).

`CC(C)S(=O)(=O)C1=NSC2=NC(=O)/C(=C\c3ccc(-c4cccc(C(=O)O)c4)o3)C(=N)N21`: the CC50 was > 100 µM (inactive).

With `CCC(C)(C)C1CCc2c(sc(NC(=O)c3ccccc3C(=O)O)c2C#N)C1` (stereo unspecified), the CC50 was 22 µM.

Regarding `CS(=O)(=O)C1=NSC2=NC(=O)/C(=C\c3ccc(OS(=O)(=O)c4ccccc4)cc3)C(=N)N21`, the CC50 was > 100 µM (inactive).

Consider `COc1cc(C=NNc2ccc(Cl)c(C(=O)O)c2)ccc1OC(=O)c1ccccc1F`, for which the CC50 is > 100 µM (inactive).

As to `Cc1c(Cl)cccc1NS(=O)(=O)c1ccc2c(c1)C1C=CCC1C(c1ccc(C(=O)O)cc1)N2` (stereo unspecified), the CC50 was > 100 µM (inactive).

`CCC(Sc1nc2ccsc2c(=O)n1Cc1ccc(C(=O)O)cc1)C(=O)Nc1ccc(C)c(Cl)c1` (stereo unspecified): the CC50 was > 100 µM (inactive).

Turning to `CCOC(=O)C1=C(C)N=c2sc(=Cc3ccc(OCC(=O)O)cc3)c(=O)n2C1c1ccc(OC(C)C)cc1` (stereo unspecified), the CC50 was 32 µM.

With `O=C1NC(=S)N(c2ccc(F)cc2)C(=O)/C1=C\c1ccoc1`, the CC50 is > 100 µM (inactive).

Regarding `Cc1ccc(S(=O)(=O)Oc2ccc(/C=C3/C(=N)N4C(=NC3=O)SN=C4S(C)(=O)=O)cc2)cc1`, the CC50 is 91 µM.

On to `COc1cc(/C=N/NS(=O)(=O)c2ccc3ccccc3c2)ccc1OCc1ccc(C(=O)O)cc1`, for which the CC50 was > 100 µM (inactive).

Turning to `O=C1NC(=S)N(c2ccc(F)cc2)C(=O)/C1=C/c1ccco1`, the CC50 is > 100 µM (inactive).

As for `CCOC(=O)c1sc(N2C(=O)C(O)=C(C(=O)c3ccc(C)o3)C2c2cccc([N+](=O)[O-])c2)nc1C` (stereo unspecified), the CC50 is > 100 µM (inactive).

As for `O=C(O)CCCN1C(=O)/C(=C/c2ccc(-c3nc4ccccc4s3)o2)SC1=S`, the CC50 was > 100 µM (inactive).

Turning to `COc1ccc(C(=O)Oc2ccc(C=NNc3ccc(Cl)c(C(=O)O)c3)cc2OC)cc1`, the CC50 is > 100 µM (inactive).

`Oc1c(Cl)cc(Cl)c(Cl)c1Cc1c(O)c(Cl)cc(Cl)c1Cl`: the CC50 is 18 µM.

As for `CC1(C)CC(=O)C2=C(C1)c1c(ccc3ccccc13)NC2c1cc([N+](=O)[O-])cc([N+](=O)[O-])c1O` (stereo unspecified), the CC50 is > 100 µM (inactive).

Source of the values: PubChem BioAssay AID435031 (Sanford-Burnham Center for Chemical Genomics, 2010).
